Converted amounts (≈) assume the structure as drawn.
Key:
Assay in all cases: MIC, microdilution broth method (NCCLS)
Format in all cases: cell-based
Conditions in all cases: 35° C., 16-20 hours
H. influenzae ATCC49247 = tested on: H. influenzae ATCC49247
Procedure: (§1) Minimal inhibitory concentration (MIC) has been an indicator of in vitro antibacterial activity widely used in the art. The in vitro antimicrobial activity of the compounds was determined by the microdilution broth method following the test method from the National Committee for Clinical Laboratory Standards (NCCLS). This method is described in the NCCLS Document M7-A4, Vol.17, No.2, “Methods for Dilution Antimicrobial Susceptibility Test for Bacteria that Grow Aerobically—Fourth Edition”, which is incorporated herein by reference.
(§2) In this method two-fold serial dilutions of drug in cation adjusted Mueller-Hinton broth are added to wells in microdilution trays. The test organisms are prepared by adjusting the turbidity of actively growing broth cultures so that the final concentration of test organism after it is added to the wells is approximately 5×10^4 CFU/well.
(§3) Following inoculation of the microdilution trays, the trays are incubated at 35° C. for 16-20 hours and then read. […] The amount of growth in the wells containing the test compound is compared with the amount of growth in the growth-control wells (no test compound) used in each tray. As set forth in Table 1, compounds of the present invention were tested against a variety of Gram positive and Gram negative pathogenic bacteria resulting in a range of activities depending on the organism tested.

S. pneumoniae ATCC49619 = tested on: S. pneumoniae ATCC49619
Procedure: as §1, §2, §3

S. aureus ATCC29213 = tested on: S. aureus ATCC29213
Procedure: as §1, §2, §3

E. faecalis ATCC29212 = tested on: E. faecalis ATCC29212
Procedure: as §1, §2, §3

CCC1OC(=O)C(C)C(=O)C(C)C(OC2OC(C)CC(N(C)C)C2O)C(C)(OC(=O)OCC=C(F)c2ccc(-c3ncccn3)cc2)CC(C)C(=O)C(C)C2NC(=O)OC12C (centres unmarked) [Compound 224]
MIC (E: H. influenzae ATCC49247) (H. influenzae ATCC49247): 2 µg/mL (≈ 2.34 µM) | MIC (D: S. pneumoniae ATCC49619) (S. pneumoniae ATCC49619): ≦0.015 μg/mL | MIC (B: S. aureus ATCC29213) (S. aureus ATCC29213): 0.12 µg/mL (≈ 0.14 µM) | MIC (C: E. faecalis ATCC29212) (E. faecalis ATCC29212): 0.06 µg/mL (≈ 0.0702 µM)

CCC1OC(=O)C(C)C(=O)C(C)C(OC2OC(C)CC(N(C)C)C2O)C(C)(OC(=O)OCCCCc2ccc(-c3ncccn3)cc2)CC(C)C(=O)C(C)C2NC(=O)OC12C (centres unmarked) [Compound 286]
MIC (E: H. influenzae ATCC49247) (H. influenzae ATCC49247): 4 µg/mL (≈ 4.69 µM) | MIC (D: S. pneumoniae ATCC49619) (S. pneumoniae ATCC49619): 0.06 µg/mL (≈ 0.0703 µM) | MIC (B: S. aureus ATCC29213) (S. aureus ATCC29213): 0.25 µg/mL (≈ 0.293 µM) | MIC (C: E. faecalis ATCC29212) (E. faecalis ATCC29212): 0.25 µg/mL (≈ 0.293 µM)

CCC1OC(=O)C(C)C(=O)C(C)C(OC2OC(C)CC(N(C)C)C2O)C(C)(OC(=O)NOCc2ccc(-c3cnccn3)cc2)CC(C)C(=O)C(C)C2NC(=O)OC12C (centres unmarked) [Compound 601]
MIC (E: H. influenzae ATCC49247) (H. influenzae ATCC49247): 2 µg/mL (≈ 2.42 µM) | MIC (D: S. pneumoniae ATCC49619) (S. pneumoniae ATCC49619): 0.03 µg/mL (≈ 0.0363 µM) | MIC (B: S. aureus ATCC29213) (S. aureus ATCC29213): 0.25 µg/mL (≈ 0.303 µM) | MIC (C: E. faecalis ATCC29212) (E. faecalis ATCC29212): 0.12 µg/mL (≈ 0.145 µM)

CCC1OC(=O)C(C)C(=O)C(C)C(OC2OC(C)CC(N(C)C)C2O)C(C)(OC(=O)NOCC#Cc2ccc(-c3cnccn3)cc2)CC(C)C(=O)C(C)C2NC(=O)OC12C (centres unmarked) [Compound 603]
MIC (E: H. influenzae ATCC49247) (H. influenzae ATCC49247): 2 µg/mL (≈ 2.35 µM) | MIC (D: S. pneumoniae ATCC49619) (S. pneumoniae ATCC49619): 0.03 µg/mL (≈ 0.0353 µM) | MIC (B: S. aureus ATCC29213) (S. aureus ATCC29213): 0.25 µg/mL (≈ 0.294 µM) | MIC (C: E. faecalis ATCC29212) (E. faecalis ATCC29212): 0.12 µg/mL (≈ 0.141 µM)

CC[C@H]1OC(=O)[C@H](C)C(=O)[C@H](C)[C@@H](O[C@@H]2O[C@H](C)C[C@H](N(C)C)[C@H]2O)[C@](C)(OC(=O)NOCC#Cc2cnc3ccccc3c2)C[C@@H](C)C(=O)[C@H](C)[C@H]2NC(=O)O[C@@]21C [Compound 618]
MIC (E: H. influenzae ATCC49247) (H. influenzae ATCC49247): 1 µg/mL (≈ 1.22 µM) | MIC (D: S. pneumoniae ATCC49619) (S. pneumoniae ATCC49619): 0.03 µg/mL (≈ 0.0365 µM) | MIC (B: S. aureus ATCC29213) (S. aureus ATCC29213): 0.25 µg/mL (≈ 0.304 µM) | MIC (C: E. faecalis ATCC29212) (E. faecalis ATCC29212): 0.06 µg/mL (≈ 0.0729 µM)

CC[C@H]1OC(=O)[C@@](C)(F)C(=O)[C@H](C)[C@@H](O[C@@H]2O[C@H](C)C[C@H](N(C)C)[C@H]2O)[C@](C)(OC(=O)NOC/C=C/c2ccc(-c3ncccn3)cc2)C[C@@H](C)C(=O)[C@H](C)[C@H]2NC(=O)O[C@@]21C [Compound 622]
MIC (E: H. influenzae ATCC49247) (H. influenzae ATCC49247): 4 µg/mL (≈ 4.6 µM) | MIC (D: S. pneumoniae ATCC49619) (S. pneumoniae ATCC49619): 0.03 µg/mL (≈ 0.0345 µM) | MIC (B: S. aureus ATCC29213) (S. aureus ATCC29213): 0.25 µg/mL (≈ 0.287 µM) | MIC (C: E. faecalis ATCC29212) (E. faecalis ATCC29212): 0.25 µg/mL (≈ 0.287 µM)

CC[C@H]1OC(=O)[C@@](C)(F)C(=O)[C@H](C)[C@@H](O[C@@H]2O[C@H](C)C[C@H](N(C)C)[C@H]2O)[C@](C)(OC(=O)NOCC#Cc2cnc3ccccc3c2)C[C@@H](C)C(=O)[C@H](C)[C@H]2NC(=O)O[C@@]21C [Compound 623]
MIC (E: H. influenzae ATCC49247) (H. influenzae ATCC49247): 4 µg/mL (≈ 4.76 µM) | MIC (D: S. pneumoniae ATCC49619) (S. pneumoniae ATCC49619): 0.03 µg/mL (≈ 0.0357 µM) | MIC (B: S. aureus ATCC29213) (S. aureus ATCC29213): 0.25 µg/mL (≈ 0.297 µM) | MIC (C: E. faecalis ATCC29212) (E. faecalis ATCC29212): 0.12 µg/mL (≈ 0.143 µM)

CC[C@H]1OC(=O)[C@H](C)C(=O)[C@H](C)[C@@H](O[C@@H]2O[C@H](C)C[C@H](N(C)C)[C@H]2O)[C@](C)(OC(=O)NNS(=O)(=O)c2ccc(C)cc2)C[C@@H](C)C(=O)[C@H](C)[C@H]2NC(=O)O[C@@]21C [Compound 809]
MIC (E: H. influenzae ATCC49247) (H. influenzae ATCC49247): 2 µg/mL (≈ 2.47 µM) | MIC (D: S. pneumoniae ATCC49619) (S. pneumoniae ATCC49619): 0.03 µg/mL (≈ 0.037 µM) | MIC (B: S. aureus ATCC29213) (S. aureus ATCC29213): 1 µg/mL (≈ 1.23 µM) | MIC (C: E. faecalis ATCC29212) (E. faecalis ATCC29212): 0.5 µg/mL (≈ 0.617 µM)

CC[C@H]1OC(=O)[C@H](C)C(=O)[C@H](C)[C@@H](O[C@@H]2O[C@H](C)C[C@H](N(C)C)[C@H]2O)[C@](C)(OC(=O)NN(C(C)=O)S(=O)(=O)c2ccc(C)cc2)C[C@@H](C)C(=O)[C@H](C)[C@H]2NC(=O)O[C@@]21C [Compound 810]
MIC (E: H. influenzae ATCC49247) (H. influenzae ATCC49247): 4 µg/mL (≈ 4.69 µM) | MIC (D: S. pneumoniae ATCC49619) (S. pneumoniae ATCC49619): 0.06 µg/mL (≈ 0.0703 µM) | MIC (B: S. aureus ATCC29213) (S. aureus ATCC29213): 2 µg/mL (≈ 2.34 µM) | MIC (C: E. faecalis ATCC29212) (E. faecalis ATCC29212): 0.5 µg/mL (≈ 0.586 µM)

CC[C@H]1OC(=O)[C@H](C)C(=O)[C@H](C)[C@@H](O[C@@H]2O[C@H](C)C[C@H](N(C)C)[C@H]2O)[C@](C)(OC(=O)NNS(=O)(=O)c2ccc(-n3cccn3)cc2)C[C@@H](C)C(=O)[C@H](C)[C@H]2NC(=O)O[C@@]21C [Compound 811]
MIC (E: H. influenzae ATCC49247) (H. influenzae ATCC49247): 4 µg/mL (≈ 4.63 µM) | MIC (D: S. pneumoniae ATCC49619) (S. pneumoniae ATCC49619): 0.06 µg/mL (≈ 0.0695 µM) | MIC (B: S. aureus ATCC29213) (S. aureus ATCC29213): 2 µg/mL (≈ 2.32 µM) | MIC (C: E. faecalis ATCC29212) (E. faecalis ATCC29212): 0.5 µg/mL (≈ 0.579 µM)

CC[C@H]1OC(=O)[C@H](C)C(=O)[C@H](C)[C@@H](O[C@@H]2O[C@H](C)C[C@H](N(C)C)[C@H]2O)[C@](C)(OC(=O)NNC(C)=O)C[C@@H](C)C(=O)[C@H](C)[C@H]2NC(=O)O[C@@]21C [Compound 812]
MIC (E: H. influenzae ATCC49247) (H. influenzae ATCC49247): >16 µg/mL | MIC (D: S. pneumoniae ATCC49619) (S. pneumoniae ATCC49619): 2 µg/mL (≈ 2.86 µM) | MIC (B: S. aureus ATCC29213) (S. aureus ATCC29213): >16 µg/mL | MIC (C: E. faecalis ATCC29212) (E. faecalis ATCC29212): 4 µg/mL (≈ 5.72 µM)

Reference: patent publication US6825170B2, “6-O-acyl ketolide antibacterials” (Ortho-McNeil Pharmaceutical, Inc., priority 2001, dated 2004)
